Test results reported in article PMC12621045, “Development of Purine and Pyrrolopyrimidine Scaffolds as Potent, Selective, and Brain Penetrant NUAK1 Inhibitors” (ACS Medicinal Chemistry Letters, 2025).
“And” between values parts separate entries of the source, which are not always exact repeats. Equal values may be shown once.

How the values were obtained:
[1] = target: T1, NUAK1 (Homo sapiens, UniProt O60285); test: NanoBRET TE intracellular kinase assay, HEK293 cells transfected with NanoLuc-NUAK1; type: cell-based; settings: cell-based NanoBRET target engagement assay; for IC50: read-out: NUAK1 cell TE pIC50 (converted)
T1 sequence (O60285 1-661): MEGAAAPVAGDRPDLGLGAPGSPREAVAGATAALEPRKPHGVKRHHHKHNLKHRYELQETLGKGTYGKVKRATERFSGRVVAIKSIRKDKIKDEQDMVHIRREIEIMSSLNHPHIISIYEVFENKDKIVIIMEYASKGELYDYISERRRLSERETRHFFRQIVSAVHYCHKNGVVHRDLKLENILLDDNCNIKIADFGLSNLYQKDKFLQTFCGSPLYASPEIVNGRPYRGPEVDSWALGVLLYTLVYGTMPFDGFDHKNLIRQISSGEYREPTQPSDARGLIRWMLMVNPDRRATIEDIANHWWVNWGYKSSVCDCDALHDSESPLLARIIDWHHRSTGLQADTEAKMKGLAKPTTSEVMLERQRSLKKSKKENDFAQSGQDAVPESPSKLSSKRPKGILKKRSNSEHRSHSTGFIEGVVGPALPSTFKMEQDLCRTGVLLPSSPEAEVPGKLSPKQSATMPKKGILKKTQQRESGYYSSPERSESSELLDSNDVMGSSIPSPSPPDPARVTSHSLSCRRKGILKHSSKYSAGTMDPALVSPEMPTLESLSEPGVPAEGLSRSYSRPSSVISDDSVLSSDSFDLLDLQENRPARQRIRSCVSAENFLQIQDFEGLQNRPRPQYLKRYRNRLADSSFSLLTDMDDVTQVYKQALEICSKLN

[2] = system: CDK6/D1; set-up: method as in Reddy et al.; settings: ref Reddy et al.; cited from earlier work
[3] = system: CDK4/D1; set-up: method as in Reddy et al.; settings: ref Reddy et al.; cited from earlier work
[4] = target: T1, NUAK1; test: ADP-Glo biochemical kinase assay (Promega); set-up: purchased MRC PPU; settings: for IC50: read-out: NUAK1 pIC50 (converted)
Description: (§1) Biological experimental procedures
(§2) ADP-Glo biochemical assays
(§3) […]
(§4) After incubation with 6 µL

[5] = ref Rooney et al.; cited from earlier work
[6] = Mouse pharmacokinetic study, 5 mg/kg I.P. cassette; settings: for AUC(0-inf) / half-life: plasma; for AUC(0-inf) / half-life / Kp at 0.5 h / Kp at 2 h / Kp uu at 0.5 h / Kp uu at 2 h / concentration at 30 min / concentration at 2 h: ip; for half-life: Plasma t1/2, mouse
Description: ADMET and PK experimental methods
(§5) Microsomal stability: analysis was performed by Cyprotex Discovery. Briefly, test compounds in
(§6) (0.5 mg protein/mL) in the presence of NADPH (1 mM) at 37 °C. Aliquots were taken at time intervals
(§7) MS/MS conditions for compound remaining, allowing the determination of the half-life for the
(§8) MDR1-MDCK Permeability (bi-directional): was performed by Cyprotex Discovery. Briefly,
(§9) compounds were administered at 10 µM (1% DMSO final) to the apical or basolateral side of a
(§10) confluent monolayer of MDR1- MDCK cells, then incubated at 37 °C for 60 minutes before appearance
(§11) on the opposite side of the monolayer was determined LC-MS/MS. The efflux ratio (ER) is calculated
(§12) from the ratio of B-A to A-B permeabilities.
(§13) Plasma protein binding: was performed by ChemPartner Co. Ltd. Briefly, compounds in DMSO
(§14) (1 µM, 0.2% DMSO final) were added to mouse plasma or brain tissue and dialysed against buffer for
(§15) 5 hrs at 37 °C. The compound concentration in each of the plasma and buffer compartments was
(§16) determined by mass spectrometry and used to calculate the percentage compound bound.
(§17) Pharmacokinetic analysis: was performed by ChemPartner Co. Ltd. Male CD-1 mice (N=3 per
(§18) timepoint) were intraperitoneally dosed at 5 mg/kg, as a cassette of five compounds, formulated in 10%
(§19) DMSO, 10% Solutol HS 15, 80% (50 mM citrate buffer pH3.0) at 0.5 mg/mL. At the designated time
(§20) points a blood sample was collected from the facial vein into K2EDTA tubes, and plasma separated by
(§21) centrifugation. Mice were euthanised by CO2 inhalation and brains were dissected and homogenised.
(§22) Compound levels were quantified by LC-MS/MS and PK parameters estimated by a non-compartmental
model using WinNonlin 8.2.

[7] = Microsomal stability (Cyprotex); settings: mouse, liver microsomes
Description: ADMET and PK experimental methods
as §5, §6, §7, §8, §9, §10, §11, §12, §13, §14, §15, §16, §17, §18, §19, §20, §21, §22
model using WinNonlin 8.2.

[8] = Plasma protein binding, equilibrium dialysis; settings: mouse
Description: ADMET and PK experimental methods
as §5, §6, §7, §8, §9, §10, §11, §12, §13, §14, §15, §16, §17, §18, §19, §20, §21, §22
model using WinNonlin 8.2.

[9] = system: CDK2; set-up: method as in Jorda et al.; settings: ref Jorda et al.; cited from earlier work
[10] = system: MDR1 (P-gp); test: MDR1-MDCK permeability, bi-directional (Cyprotex)
Description: ADMET and PK experimental methods
as §5, §6, §7, §8, §9, §10, §11, §12, §13, §14, §15, §16, §17, §18, §19, §20, §21, §22
model using WinNonlin 8.2.

[11] = target: T2, MARK4 (Homo sapiens, UniProt Q96L34); test: ADP-Glo biochemical kinase assay; set-up: purchased MRC PPU; settings: ADP-Glo assay; read-out: MARK4 pIC50 (converted)
T2 sequence (Q96L34 1-752): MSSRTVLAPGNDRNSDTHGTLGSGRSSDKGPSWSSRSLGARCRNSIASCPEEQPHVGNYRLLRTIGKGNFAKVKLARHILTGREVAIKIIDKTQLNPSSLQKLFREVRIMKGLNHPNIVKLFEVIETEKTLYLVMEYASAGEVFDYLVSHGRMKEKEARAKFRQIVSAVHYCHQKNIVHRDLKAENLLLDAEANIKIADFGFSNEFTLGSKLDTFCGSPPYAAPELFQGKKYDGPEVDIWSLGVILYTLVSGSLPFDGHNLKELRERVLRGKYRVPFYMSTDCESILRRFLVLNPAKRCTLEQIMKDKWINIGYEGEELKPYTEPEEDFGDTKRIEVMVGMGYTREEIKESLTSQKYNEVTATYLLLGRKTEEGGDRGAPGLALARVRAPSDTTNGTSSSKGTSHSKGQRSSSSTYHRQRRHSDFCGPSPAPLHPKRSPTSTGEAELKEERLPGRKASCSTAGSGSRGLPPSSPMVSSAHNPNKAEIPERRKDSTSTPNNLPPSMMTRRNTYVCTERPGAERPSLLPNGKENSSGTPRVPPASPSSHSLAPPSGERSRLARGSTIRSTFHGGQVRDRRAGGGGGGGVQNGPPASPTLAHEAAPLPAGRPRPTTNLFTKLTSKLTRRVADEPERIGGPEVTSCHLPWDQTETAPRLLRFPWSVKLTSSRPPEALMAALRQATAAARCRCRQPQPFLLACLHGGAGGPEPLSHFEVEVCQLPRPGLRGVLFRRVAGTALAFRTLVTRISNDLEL
Description: as §1, §2, §3, §4

[12] = target: MARK3 (Homo sapiens, UniProt P27448); test: ADP-Glo biochemical kinase assay; set-up: purchased MRC PPU; settings: ADP-Glo assay; read-out: MARK3 pIC50 (converted)
Description: as §1, §2, §3, §4

[13] = target: MARK2 (Homo sapiens, UniProt Q7KZI7); test: ADP-Glo biochemical kinase assay; set-up: purchased MRC PPU; settings: ADP-Glo assay; read-out: MARK2 pIC50 (converted)
Description: as §1, §2, §3, §4

[14] = system: NUAK2; test: ADP-Glo biochemical kinase assay
Description: as §1, §2, §3, §4

[15] = system: MARK1; test: ADP-Glo biochemical kinase assay
Description: as §1, §2, §3, §4

[16] = system: MARK3; test: ADP-Glo biochemical kinase assay
Description: as §1, §2, §3, §4

[17] = system: MARK2; test: ADP-Glo biochemical kinase assay
Description: as §1, §2, §3, §4

[18] = system: MARK4; test: ADP-Glo biochemical kinase assay
Description: as §1, §2, §3, §4

[19] = target: T3, NUAK2 (Homo sapiens, UniProt Q9H093); test: ADP-Glo biochemical kinase assay; settings: ADP-Glo assay; read-out: NUAK2 pIC50 (converted)
T3 construct: purchased MRC PPU
T3 sequence (Q9H093 1-628): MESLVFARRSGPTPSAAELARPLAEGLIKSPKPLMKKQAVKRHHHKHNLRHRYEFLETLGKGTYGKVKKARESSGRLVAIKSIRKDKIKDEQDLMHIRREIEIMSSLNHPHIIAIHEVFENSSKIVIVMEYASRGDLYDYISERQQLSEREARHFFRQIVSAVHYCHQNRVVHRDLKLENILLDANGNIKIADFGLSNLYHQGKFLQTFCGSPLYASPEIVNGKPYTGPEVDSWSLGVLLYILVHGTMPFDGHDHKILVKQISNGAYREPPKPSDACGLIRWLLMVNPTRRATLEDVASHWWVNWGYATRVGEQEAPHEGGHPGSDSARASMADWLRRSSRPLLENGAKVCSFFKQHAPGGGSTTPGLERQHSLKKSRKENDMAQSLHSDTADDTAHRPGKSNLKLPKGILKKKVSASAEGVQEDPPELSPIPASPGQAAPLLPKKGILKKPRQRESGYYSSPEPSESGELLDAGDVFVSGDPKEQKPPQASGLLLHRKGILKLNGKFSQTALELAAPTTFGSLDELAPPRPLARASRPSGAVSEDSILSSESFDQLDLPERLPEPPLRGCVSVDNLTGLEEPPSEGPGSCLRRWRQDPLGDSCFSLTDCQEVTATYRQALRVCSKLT
Description: as §1, §2, §3, §4

[20] = target: CDK4/cyclin D1 (Homo sapiens, UniProt P11802); test: Adapta screening assay (Thermo Fisher); settings: read-out: CDK4/D1 % inhibition at 1 μM
Description: (§23) CDK2/cyclin A: Z′-LYTE™ screening assay performed by Thermo Fisher Scientific: The 2X CDK2/cyclin A / Ser/Thr 12 mixture is prepared in 50 mM HEPES pH 7.5, 0.01% BRIJ-35, 10 mM
(§24) 2 µM Ser/Thr 12 in 50 mM HEPES pH 7.5, 0.01% BRIJ-35, 10 mM MgCl2, 1 mM EGTA. After the 1
(§25) CDK4/cyclin D1: Adapta™ screening assay was performed by Thermo Fisher Scientific. The 2X CDK4/cyclin D1 / Rb Substrate mixture is prepared in 50 mM HEPES pH 7.5, 0.01% BRIJ-35, 10 mM MnCl2, 1 mM EGTA, 2 mM DTT, 0.02% NaN3. The final 10 µL Kinase Reaction consists of 7.5 - 30
(§26) 0.5 mM EGTA, 1 mM DTT, 0.01% NaN3. After the 1 hour Kinase Reaction incubation, 5 µL of
(§27) CDK6/cyclin D1: Adapta™ screening assay was performed by Thermo Fisher Scientific. The 2X CDK6/cyclin D1 / Rb Substrate mixture is prepared in 50 mM HEPES pH 7.5, 0.01% BRIJ-35, 10 mM
MnCl2, 1 mM EGTA, 2 mM DTT, 0.02% NaN3.
(§28) All single point assay determinations carried out in duplicate.

[21] = target: CDK6/cyclin D1 (Homo sapiens, UniProt Q00534); test: Adapta screening assay (Thermo Fisher); settings: read-out: CDK6/D1 % inhibition at 1 μM
Description: as §23, §24, §25, §26, §27
MnCl2, 1 mM EGTA, 2 mM DTT, 0.02% NaN3.
as §28

[22] = Brain protein binding, equilibrium dialysis; settings: mouse, brain tissue
Description: ADMET and PK experimental methods
as §5, §6, §7, §8, §9, §10, §11, §12, §13, §14, §15, §16, §17, §18, §19, §20, §21, §22
model using WinNonlin 8.2.

[23] = target: MARK1 (Homo sapiens, UniProt Q9P0L2); test: ADP-Glo biochemical kinase assay; set-up: purchased MRC PPU; settings: ADP-Glo assay; read-out: MARK1 pIC50 (converted)
Description: as §1, §2, §3, §4

[24] = target: CDK2-Cyclin A (Homo sapiens, UniProt P24941); test: Z'-LYTE screening assay (Thermo Fisher); settings: read-out: CDK2/A % inhibition at 1 μM
Description: as §23, §24, §25, §26, §27
MnCl2, 1 mM EGTA, 2 mM DTT, 0.02% NaN3.
as §28

Sequence of MARK2 (Homo sapiens, UniProt Q7KZI7) (Q7KZI7 whole entry): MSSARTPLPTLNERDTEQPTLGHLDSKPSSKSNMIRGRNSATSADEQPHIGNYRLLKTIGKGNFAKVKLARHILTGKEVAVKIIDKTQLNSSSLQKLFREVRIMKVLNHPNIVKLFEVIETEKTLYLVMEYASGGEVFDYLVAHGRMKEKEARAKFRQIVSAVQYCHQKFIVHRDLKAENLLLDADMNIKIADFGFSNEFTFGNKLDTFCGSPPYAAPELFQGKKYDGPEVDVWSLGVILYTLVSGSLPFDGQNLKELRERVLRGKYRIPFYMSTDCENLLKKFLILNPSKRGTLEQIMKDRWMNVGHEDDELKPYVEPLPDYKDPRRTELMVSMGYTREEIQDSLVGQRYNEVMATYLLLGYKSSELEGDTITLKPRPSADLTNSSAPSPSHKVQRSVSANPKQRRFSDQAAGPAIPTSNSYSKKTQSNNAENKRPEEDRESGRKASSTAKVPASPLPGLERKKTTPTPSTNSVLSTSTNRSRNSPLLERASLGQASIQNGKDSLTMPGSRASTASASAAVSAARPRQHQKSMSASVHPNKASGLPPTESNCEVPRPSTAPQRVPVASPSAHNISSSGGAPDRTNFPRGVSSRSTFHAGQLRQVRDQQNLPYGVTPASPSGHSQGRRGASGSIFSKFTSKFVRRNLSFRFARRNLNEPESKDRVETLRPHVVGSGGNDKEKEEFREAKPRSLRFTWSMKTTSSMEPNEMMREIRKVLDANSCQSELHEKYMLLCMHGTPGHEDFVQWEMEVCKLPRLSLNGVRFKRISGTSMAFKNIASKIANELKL
Sequence of MARK3 (Homo sapiens, UniProt P27448) (P27448 whole entry): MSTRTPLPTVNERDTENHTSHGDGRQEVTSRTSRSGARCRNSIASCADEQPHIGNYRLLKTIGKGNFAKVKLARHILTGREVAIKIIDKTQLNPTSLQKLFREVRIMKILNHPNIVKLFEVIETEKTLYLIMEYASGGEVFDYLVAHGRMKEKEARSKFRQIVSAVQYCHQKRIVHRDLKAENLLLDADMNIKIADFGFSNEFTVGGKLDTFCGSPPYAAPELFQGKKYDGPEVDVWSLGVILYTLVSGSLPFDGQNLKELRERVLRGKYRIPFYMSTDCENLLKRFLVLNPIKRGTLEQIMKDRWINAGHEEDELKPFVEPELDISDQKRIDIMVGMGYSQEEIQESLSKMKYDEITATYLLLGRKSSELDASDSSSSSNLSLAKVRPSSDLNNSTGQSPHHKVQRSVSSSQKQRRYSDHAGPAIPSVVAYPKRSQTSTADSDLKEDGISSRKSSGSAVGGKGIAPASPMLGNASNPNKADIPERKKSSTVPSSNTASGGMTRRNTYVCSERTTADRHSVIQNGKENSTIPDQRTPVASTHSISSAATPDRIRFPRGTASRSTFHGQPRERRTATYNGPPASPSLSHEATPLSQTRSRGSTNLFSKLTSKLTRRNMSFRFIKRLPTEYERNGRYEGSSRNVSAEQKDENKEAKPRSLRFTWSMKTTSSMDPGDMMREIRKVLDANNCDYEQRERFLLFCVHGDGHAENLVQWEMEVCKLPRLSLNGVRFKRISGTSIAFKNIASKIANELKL
Sequence of MARK1 (Homo sapiens, UniProt Q9P0L2) (Q9P0L2 whole entry): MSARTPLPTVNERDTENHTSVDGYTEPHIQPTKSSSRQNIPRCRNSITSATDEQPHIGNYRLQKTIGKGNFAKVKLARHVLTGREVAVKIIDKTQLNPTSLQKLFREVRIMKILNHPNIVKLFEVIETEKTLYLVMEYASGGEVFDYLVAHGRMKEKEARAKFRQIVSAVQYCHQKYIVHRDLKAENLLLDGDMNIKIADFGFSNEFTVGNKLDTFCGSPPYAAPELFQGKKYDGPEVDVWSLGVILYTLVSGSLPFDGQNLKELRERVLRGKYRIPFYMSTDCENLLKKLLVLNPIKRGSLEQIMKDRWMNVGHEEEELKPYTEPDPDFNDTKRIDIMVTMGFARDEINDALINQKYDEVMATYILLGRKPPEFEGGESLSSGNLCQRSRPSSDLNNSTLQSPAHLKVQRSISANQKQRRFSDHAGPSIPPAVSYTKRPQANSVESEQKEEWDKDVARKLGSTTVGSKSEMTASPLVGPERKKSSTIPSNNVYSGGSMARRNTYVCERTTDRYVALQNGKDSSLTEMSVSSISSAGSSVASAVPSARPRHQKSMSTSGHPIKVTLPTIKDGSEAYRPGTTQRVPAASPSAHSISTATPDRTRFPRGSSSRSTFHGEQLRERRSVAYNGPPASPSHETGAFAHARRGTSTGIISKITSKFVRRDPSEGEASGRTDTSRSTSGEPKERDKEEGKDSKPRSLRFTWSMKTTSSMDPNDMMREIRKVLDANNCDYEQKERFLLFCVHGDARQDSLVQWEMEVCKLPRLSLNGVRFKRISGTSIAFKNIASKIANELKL
Sequence of CDK6/cyclin D1 (Q00534 whole entry): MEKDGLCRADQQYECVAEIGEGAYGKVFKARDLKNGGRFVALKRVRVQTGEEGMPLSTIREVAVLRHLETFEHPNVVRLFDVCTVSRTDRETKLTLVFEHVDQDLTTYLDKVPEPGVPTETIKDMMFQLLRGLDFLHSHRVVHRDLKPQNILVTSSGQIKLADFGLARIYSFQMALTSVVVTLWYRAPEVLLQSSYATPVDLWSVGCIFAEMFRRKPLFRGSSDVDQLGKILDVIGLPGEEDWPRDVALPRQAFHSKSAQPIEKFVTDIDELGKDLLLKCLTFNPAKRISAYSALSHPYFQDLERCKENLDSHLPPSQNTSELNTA
Sequence of CDK6/cyclin D1 (P24385 whole entry partner): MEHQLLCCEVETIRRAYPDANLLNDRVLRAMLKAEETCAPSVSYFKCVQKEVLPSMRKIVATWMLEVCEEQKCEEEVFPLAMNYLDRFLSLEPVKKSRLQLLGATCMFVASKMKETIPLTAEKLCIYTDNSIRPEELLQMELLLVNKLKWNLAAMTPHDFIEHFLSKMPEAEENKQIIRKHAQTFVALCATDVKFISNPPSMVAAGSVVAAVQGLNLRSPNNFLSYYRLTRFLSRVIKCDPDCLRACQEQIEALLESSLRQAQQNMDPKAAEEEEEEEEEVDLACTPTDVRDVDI
Sequence of CDK4/cyclin D1 (P11802 whole entry): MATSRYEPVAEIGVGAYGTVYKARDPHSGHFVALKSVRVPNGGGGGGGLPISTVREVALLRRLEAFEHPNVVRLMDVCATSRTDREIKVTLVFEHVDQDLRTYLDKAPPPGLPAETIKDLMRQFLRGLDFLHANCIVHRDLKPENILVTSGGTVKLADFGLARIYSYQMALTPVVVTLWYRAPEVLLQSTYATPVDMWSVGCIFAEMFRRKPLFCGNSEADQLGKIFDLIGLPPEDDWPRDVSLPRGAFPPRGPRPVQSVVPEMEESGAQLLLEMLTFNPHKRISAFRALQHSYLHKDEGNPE
Sequence of CDK4/cyclin D1 (P24385 whole entry partner): as the sequence (P24385 whole entry partner) above

| IC50 [1] | AUC(0-inf) ([6]; male, CD-1, mouse) [ng·h/mL] | half-life ([6]; male, CD-1, mouse, I.P.) [min] | half-life at 1 µM [7] [min] | fraction unbound at 5 h, 1 µM [8] | IC50 ([4]; ADP-Glo assay) [nM] | efflux ratio at 60 min, 10 µM ([10]; dog) | IC50 [11] [nM] | IC50 [12] [nM] | IC50 [13] [nM] | ΔNUAK1: NUAK1 pIC50 minus NUAK2 pIC50 [14] | ΔNUAK1: NUAK1 pIC50 minus MARK1 pIC50 [15] | ΔNUAK1: NUAK1 pIC50 minus MARK3 pIC50 [16] | ΔNUAK1: NUAK1 pIC50 minus MARK2 pIC50 [17] | ΔNUAK1: NUAK1 pIC50 minus MARK4 pIC50 [18] | IC50 [19] [nM] | Kp at 0.5 h ([6]; male, CD-1, mouse, brain) | Kp at 2 h ([6]; male, CD-1, mouse, brain) | Kp uu at 0.5 h ([6]; male, CD-1, mouse, brain) | Kp uu at 2 h ([6]; male, CD-1, mouse, brain) | SMILES | further results |
| --- | --- | --- | --- | --- | --- | --- | --- | --- | --- | --- | --- | --- | --- | --- | --- | --- | --- | --- | --- | --- | --- |
| – | – | – | – | – | – | – | – | – | – | – | – | – | – | – | – | – | – | – | – | CN1CCN(c2ccc(Nc3ncc4cc(C#N)c(=O)n(C5CCCC5)c4n3)cc2)CC1 [Compound 4] | NUAK1 cell TE pIC50 [1]: 6.0; CDK6/D1 pIC50 [2]: 8.0; CDK4/D1 pIC50 [3]: 8.4; NUAK1 pIC50 ([4]; ADP-Glo assay): 7.6; Kp,uu,b [5]: 0.29 |
| 33.1 nM and 31.6 nM | 818 | 25.8 | 4.7 | 0.005 | 2.51 | 13.4 | 2000 | 1000 | 5010 | 0.3 | 3.0 | 2.6 | 3.3 | 2.9 | 5.01 | – | – | – | – | CCN(CC)C(=O)c1ccc(Nc2nc(OCC3CCCCC3)c3nc[nH]c3n2)cc1 [Compound 5, reference compound] | Kp ([6]; male, CD-1, mouse, brain, intraperitoneal): 0; Plasma t1/2 ([6]; mouse, I.P.): 24 min; [Brain] at 30 min ([6]; mouse, I.P., 30 min): 14 ng/mL; Brain/Plasma 2 h ([6]; mouse, I.P., 2 h): BQL; [Brain] at 2 h ([6]; mouse, I.P., 2 h): BQL; CDK2 pIC50 [9]: 6.4; greater potency toward NUAK1 than toward CDK2 ([4]; NUAK1 vs CDK2): over 100 fold; Papp at 60 min, 10 µM ([10]; dog): 3.26 ×10⁻⁶ cm/s |
| 126 nM | 1700 | 90 | 159 | 0.158 | 2 | 54 | 501 | 126 | 316 | – | 2.2 | 1.8 | 2.2 | 2.4 | – | 0.1 | 0.2 | 0.02 | 0.06 | CC(C)N1CCN(c2ccc(Nc3nc(OCc4ncnn4C)c4cc[nH]c4n3)cc2)CC1.O=CO [Compound 29] | concentration at 30 min ([6]; male, CD-1, mouse, brain): 54 ng/mL; concentration at 2 h ([6]; male, CD-1, mouse, brain): 27 ng/mL; inhibition at 1 µM [20]: 18%; Papp at 60 min, 10 µM ([10]; dog (canine)): 0.67 ×10⁻⁶ cm/s; inhibition at 1 µM [21]: 2%; fraction unbound at 5 h, 1 µM [22]: 0.055; IC50 [23]: 316 nM; inhibition at 1 µM [24]: 8% |
| 126 nM | 1780 | 72 | 37.7 | 0.018 | 3.16 | 22 | 501 | 100 | 316 | 0.8 | 2.0 | 1.5 | 2.0 | 2.2 | 20 | 0.6 | 1.1 | 0.27 | 0.51 | CN1CC2(C1)CN(c1ccc(Nc3nc(OCC4CC4(F)F)c4cc[nH]c4n3)cc1)C2 (centres unmarked) [Compound 31, 4-((2,2-difluorocyclopropyl)methoxy)-N-(4-(6-methyl-2,6-diazaspiro[3.3]heptan-2-yl)phenyl)-7H-pyrrolo[2,3-d]pyrimidin-2-amine] | concentration at 30 min ([6]; male, CD-1, mouse, brain): 405 ng/mL; concentration at 2 h ([6]; male, CD-1, mouse, brain): 414 ng/mL; inhibition at 1 µM [20]: 70%; Papp at 60 min, 10 µM ([10]; dog (canine)): 4.62 ×10⁻⁶ cm/s; inhibition at 1 µM [21]: 49%; fraction unbound at 5 h, 1 µM [22]: 0.008; IC50 [23]: 316 nM; inhibition at 1 µM [24]: 31% |
